Data published in the Deep4Chem optical property database.
One block for each compound: values may come before it.

Assay: solvent given as SMILES

SMILES: FC(F)(F)c1ccc(-c2nnc(-c3cc(-c4nnc(-c5ccc(C(F)(F)F)cc5)o4)c(-n4c5ccccc5c5ccccc54)cc3-n3c4ccccc4c4ccccc43)o2)cc1
absorption maximum (in Cc1ccccc1): 376 nm

absorption maximum (in ClCCl): 326 nm
SMILES: O=C1c2cccc3cc(C#CC#Cc4cc5c6c(cccc6c4)C(=O)N(c4ccccc4)C5=O)cc(c23)C(=O)N1c1ccccc1

absorption maximum (in CCOC(C)=O): 454 nm
SMILES: CCN1CCN(c2ccc(/N=N/c3cc([N+](=O)[O-])cc([N+](=O)[O-])c3)cc2)CC1

absorption maximum (in CO): 540 nm
SMILES: CCOC(=O)CCCCCn1c2ccc(C)cc2c(=O)c2cc3c(cc21)c(=O)c1cc(C)ccc1n3CCCCCC(=O)OCC

absorption maximum (in ClCCl): 360 nm
SMILES: CCn1c2c(-c3ccc(-c4cccs4)s3)cc(C(C)(C)C)cc2c2cc(C(C)(C)C)cc(-c3ccc(-c4cccs4)s3)c21

absorption maximum (in CO): 786 nm
SMILES: CC1(C)C(/C=C/C2=C(Cl)C(=C/C=C3/N(Cc4ccc(C(=O)O)cc4)c4ccccc4C3(C)C)/CCC2)=[N+](Cc2ccc(C(=O)O)cc2)c2ccccc21

absorption maximum (in C1CCOC1): 361 nm
absorption maximum (in ClC(Cl)Cl): 362 nm
absorption maximum (in ClCCl): 360 nm
SMILES: COc1cc2cc(OC)c(C#Cc3ccc([N+](=O)[O-])cc3)cc2cc1C#Cc1ccc([N+](=O)[O-])cc1

absorption maximum (in ClC(Cl)Cl): 647 nm
SMILES: Cc1cc(C)c(C2=C3C=CC=[N+]3[B-]3(c4ccc5ccc6cccc7ccc4c5c67)Oc4cc(O)cc5c6ccc(C)cc6c6cc2n3c6c45)c(C)c1 (configuration not stated)

absorption maximum (in C1CCCCC1): 315 nm
absorption maximum (in CO): 315 nm
SMILES: C/C(=C\c1ccccc1)c1nc2ccccc2o1

absorption maximum (in ClCCl): 353 nm
SMILES: Fc1ccccc1N1c2c(sc3ccccc23)Sc2sc3ccccc3c21

absorption maximum (in CS(C)=O): 622 nm
SMILES: F[B-]1(F)C2=C(C=c3c4cccc5cccc(c54)n31)c1cccc3ccc[n+]2c13

SMILES: Cc1cc(C)c(B(c2ccc(-c3nc4c5ccccc5c5ccccc5c4[nH]3)cc2)c2c(C)cc(C)cc2C)c(C)c1
absorption maximum (in C1CCOC1): 384 nm
absorption maximum (in CC(C)=O): 380 nm
absorption maximum (in CS(C)=O): 386 nm
absorption maximum (in Cc1ccccc1): 381 nm
absorption maximum (in ClCCl): 376 nm

SMILES: Cc1c(COC(=O)Cc2ccccc2)n2c(OCC(=O)Cc3ccccc3)c(C)c(=O)n2c1=O
absorption maximum (in CCO): 379 nm

absorption maximum (in C1CCCCC1): 395 nm
absorption maximum (in CC#N): 398 nm
absorption maximum (in CO): 396 nm
absorption maximum (in ClCCl): 398 nm
SMILES: COc1c2ccccc2c(OC)c2c1c1ccc(F)cc1n2C

SMILES: CCCCN(CCCC)c1ccc(/C=C/c2ccc(-c3ccc(/C=C/c4ccc(N(CCCC)CCCC)cc4)cc3)cc2)cc1
absorption maximum (in CS(C)=O): 412.9 nm
absorption maximum (in Cc1ccccc1): 399.3 nm

absorption maximum (in CC(=O)O): 532 nm
absorption maximum (in CN(C)C=O): 518 nm
absorption maximum (in CS(C)=O): 519 nm
SMILES: CCN(CC)c1ccc(/N=N/c2cc3c(=O)[nH][nH]c(=O)c3cc2[N+](=O)[O-])c(NC(C)=O)c1

SMILES: Cc1ccc(C2=C3C=CC(C#Cc4ccccc4)=[N+]3[B-](F)(F)n3c(Cl)ccc32)cc1
absorption maximum (in C1CCCCC1): 564 nm
absorption maximum (in C1CCOC1): 560 nm
absorption maximum (in C1COCCO1): 562 nm
absorption maximum (in CCOC(C)=O): 558 nm
absorption maximum (in CO): 556 nm
absorption maximum (in Cc1ccccc1): 566 nm
absorption maximum (in ClC(Cl)Cl): 564 nm

absorption maximum (in ClCCl): 370 nm
SMILES: C(=C/c1ccc(N(c2ccccc2)c2ccccc2)cc1)/c1ccc(N(c2ccccc2)c2ccccc2)cc1

SMILES: BrCCCCCCCCCCCCOc1cc2ccc3cccc4ccc(c1)c2c34
absorption maximum (in Cc1ccccc1): 384 nm

absorption maximum (in ClCCl): 345 nm
SMILES: Oc1ccc(Br)cc1-c1nc2c(c3c1-c1ccccc1CC3)-c1ccccc1CC2

absorption maximum (in C1COCCO1): 437 nm
SMILES: COC(=O)c1ccc(/C=C2\C=C(c3ccccc3)NC2=O)cc1

absorption maximum (in ClCCl): 304 nm
SMILES: O=P(c1ccccc1)(c1ccccc1)c1cccc(-c2nc3ccccc3n2-c2cccc(P(=O)(c3ccccc3)c3ccccc3)c2)c1

SMILES: CC(C)(C)c1ccc2c(c1)[nH]c1c3[nH]c4cc(C(C)(C)C)ccc4c3c3nsnc3c21
absorption maximum (in CN(C)C=O): 412 nm
absorption maximum (in Cc1ccccc1): 406 nm
absorption maximum (in ClCCl): 411 nm

SMILES: CCNc1cc2oc(=O)cc(C(F)(F)F)c2cc1C
absorption maximum (in CC#N): 383 nm

SMILES: O=C1O[B-]2(OC1=O)OC(c1ccccc1)=CC(c1ccc3ccccc3c1)=[O+]2
absorption maximum (in CC#N): 435 nm
absorption maximum (in ClC(Cl)(Cl)Cl): 435 nm

absorption maximum (in ClCCl): 391 nm
SMILES: COc1cc(OC)cc(C2=[O+][B-](F)(F)OC(c3cccs3)=C2)c1

absorption maximum (in ClC(Cl)Cl): 421 nm
SMILES: CCCCCCN1C(=O)C(c2ccc(-n3c4ccccc4c4ccccc43)cc2)=C(c2ccc(-n3c4ccccc4c4ccccc43)cc2)C1=O
absorption maximum (in c1ccc2c(c1)c1ccccc1n2-c1ccc(-c2ccc(-n3c4ccccc4c4ccccc43)cc2)cc1): 426 nm

absorption maximum (in ClCCl): 379 nm
SMILES: COc1ccc(-c2ccc(/C=C/c3cnc4ccccc4n3)cc2)cc1

SMILES: Cc1cc(C)cc(C)c1
absorption maximum (in C1CCCCC1): 261.57 nm

SMILES: N#C/C(=C\c1ccncc1)c1nc(-c2ccccc2)cs1
absorption maximum (in CC#N): 361 nm
absorption maximum (in CCO): 370 nm
absorption maximum (in CN(C)C=O): 368 nm
absorption maximum (in CS(C)=O): 371 nm
absorption maximum (in Cc1ccccc1): 372 nm
absorption maximum (in ClCCl): 418 nm

absorption maximum (in C1CCCCC1): 350 nm
SMILES: CCCC1(CCC)c2cc(-c3ccc(OC)cc3)ccc2-c2ccc(-c3ccc4c(c3)C(CCC)(CCC)c3cc(-c5ccc(OC)cc5)ccc3-4)cc21

absorption maximum (in C1COCCO1): 438 nm
SMILES: COC(=O)c1ccc(/C=C2\C=C(c3ccc(C#N)cc3)N(CC(C)C)C2=O)cc1

SMILES: CN(C)c1ccc(C2=Nc3sc4cc(Cl)ccc4[n+]3[B-](F)(F)O2)cc1
absorption maximum (in C1CCOC1): 430 nm
absorption maximum (in CC#N): 426 nm
absorption maximum (in CC(C)=O): 430 nm
absorption maximum (in Cc1ccccc1): 427 nm
absorption maximum (in ClCCl): 430 nm

absorption maximum (in ClC(Cl)Cl): 533 nm
SMILES: CCOC(CN1C(=O)C2=C(c3cccs3)N(CC(OCC)OCC)C(=O)C2=C1c1cccs1)OCC

absorption maximum (in CS(C)=O): 556 nm
SMILES: C[N+]1=C(/C=C/C=C2/N(CCC[N+](C)(C)C)c3ccc(S(=O)(=O)[O-])cc3C2(C)C)C(C)(C)c2ccccc21

SMILES: COc1cccc(C2=CC3=C(c4c(C)cc(C)cc4C)c4cc(-c5cccc(OC)c5)c(-c5cccc(OC)c5)n4[B-](F)(F)[N+]3=C2c2cccc(OC)c2)c1
absorption maximum (in C1CCCCC1): 596 nm
absorption maximum (in C1CCOC1): 592 nm
absorption maximum (in CC#N): 581 nm
absorption maximum (in Cc1ccccc1): 596 nm
absorption maximum (in ClCCl): 588 nm

absorption maximum (in ClCCl): 310 nm
SMILES: Clc1ccc(N2c3sc4ccccc4c3Sc3sc4ccccc4c32)cc1

absorption maximum (in C1CCOC1): 493 nm
SMILES: Cc1cscc1-c1cc2c3cc(-c4cscc4C)c4nc(C(F)(F)C(F)(F)C(F)(F)F)nc5c(-c6cscc6C)cc(c6cc(-c7cscc7C)c7nc(C(F)(F)C(F)(F)C(F)(F)F)nc1c7c26)c3c45

absorption maximum (in ClCCl): 500 nm
SMILES: CCCCCCCCOc1ccc(C2=C3C(C)=CC(C)=[N+]3[B-](F)(F)n3c(C)cc(C)c32)cc1

absorption maximum (in C1CCOC1): 455 nm
SMILES: CC(C)(C)c1cc2c(c(C(C)(C)C)c1)O[B-]1(c3ccc([B-]45OC(c6ccccc6)=N[N+]4=Cc4cc(C(C)(C)C)cc(C(C)(C)C)c4O5)cc3)OC(c3ccccc3)=N[N+]1=C2 (configuration not stated)

SMILES: N#C/C(=C\c1cn(-c2ccccc2)nc1-c1ccc([N+](=O)[O-])cc1)c1nc2ccccc2s1
absorption maximum (in C1CCOC1): 378 nm
absorption maximum (in C1COCCO1): 379 nm
absorption maximum (in CCOC(C)=O): 375 nm
absorption maximum (in CN(C)C=O): 376 nm
absorption maximum (in CS(C)=O): 375 nm
absorption maximum (in Cc1ccccc1): 383 nm
absorption maximum (in ClC(Cl)Cl): 382 nm

absorption maximum (in ClCCl): 532 nm
SMILES: CCCCCCOc1ccc(N(c2ccc(OCCCCCC)cc2)c2ccc(-c3sc(-c4ccc(N(c5ccc(OCCCCCC)cc5)c5ccc(OCCCCCC)cc5)cc4)c4nc(CC)c(CC)nc34)cc2)cc1

absorption maximum (in ClCCl): 388.72 nm
SMILES: c1ccn(-c2ccc(-c3cc(-c4ccc(-n5cccc5)cc4)cc(-c4ccc(-n5cccc5)cc4)c3)cc2)c1

absorption maximum (in ClC(Cl)Cl): 445 nm
SMILES: Cc1ccc(S(=O)(=O)/N=c2\oc3cccc4c5c(-c6ccccc6)oc6cccc(c(c2-c2ccccc2)c34)c65)cc1

absorption maximum (in CN(C)C=O): 323 nm
SMILES: Cc1cc(-c2ccc(-c3nc4ccccc4[nH]3)cc2)c(C)cc1-c1ccc(-c2nc3ccccc3[nH]2)cc1

absorption maximum (in CC#N): 340 nm
absorption maximum (in O): 333 nm
SMILES: Nc1cccc2ncccc12

absorption maximum (in C1COCCO1): 528 nm
absorption maximum (in ClCCl): 549 nm
SMILES: CCCCN(CCCC)c1ccc(/C=C/c2ccc3nc(/C=C/c4nc5ccc(/C=C/c6ccc(N(CCCC)CCCC)cc6)cc5n(CCC)c4=O)c(=O)n(CCC)c3c2)cc1

absorption maximum (in O): 296 nm
SMILES: CC(C)(C)c1cccc2c(O)cccc12

absorption maximum (in O): 370 nm
SMILES: O=C(NCc1cc(=O)oc2cc([O-])c(Br)cc12)c1cccnc1

absorption maximum (in ClCCl): 335 nm
SMILES: CC(C)(C)NC(=O)c1cccc2ccc3c4cc(Cl)ccc4c4ccc(Cl)cc4c3c12

absorption maximum (in C1CCCCC1): 331 nm
SMILES: CCC(C)(C)c1ccc2c(c1)C(CCOC)(CCOC)c1cc(-c3ccc4c(c3)C(CCOC)(CCOC)c3cc(C(C)(C)CC)ccc3-4)ccc1-2

absorption maximum (in CCCCCC): 199 nm
SMILES: CCCN(CCC)CCC

absorption maximum (in CC#N): 388 nm
absorption maximum (in ClCCl): 398 nm
SMILES: Cn1c(=O)cc(C(=O)c2ccccc2)c2sc(-c3ccc(C(F)(F)F)cc3)cc21

SMILES: Cc1nc(-c2ccc(N3c4ccccc4C(c4ccccc4)(c4ccccc4)c4ccccc43)cc2)cc(-c2ccc(N3c4ccccc4C(c4ccccc4)(c4ccccc4)c4ccccc43)cc2)n1
absorption maximum (in Cc1ccccc1): 370 nm

SMILES: COc1ccc(-c2ccc3c(c2)c2cc(-c4ccc(OC)cc4)ccc2n3-c2ccc(C(=O)c3ccc4sc5ccccc5c4c3)nc2)cc1
absorption maximum (in Cc1ccccc1): 390 nm

SMILES: c1ccc(N(c2ccccc2)c2c3ccccc3c(N(c3ccccc3)c3ccccc3)c3ccccc23)cc1
absorption maximum (in Cc1ccccc1): 461 nm

absorption maximum (in ClCCl): 282 nm
SMILES: Cn1nc(-c2ccc(C#N)cc2)cc1-c1ccccc1

absorption maximum (in C1CCCCC1): 309 nm
SMILES: C=Cc1ccc(OC)c(OC)c1

absorption maximum (in CCO): 471 nm
SMILES: CN1c2cc3nc4cc(Cl)c(Cl)cc4nc3cc2N(C)C1(C)C

absorption maximum (in CC(=O)O): 556 nm
absorption maximum (in CN(C)C=O): 550 nm
absorption maximum (in CS(C)=O): 553 nm
SMILES: CCN(CC)c1cc(NC(C)=O)c(/N=N/c2cc3c(=O)[nH][nH]c(=O)c3cc2[N+](=O)[O-])cc1OC

SMILES: Cc1cc(C)c(C2=C3C=C(c4ccc(C(C)(C)C)cc4)C(c4ccc(C(C)(C)C)cc4)=[N+]3[B-](F)(F)n3c2cc(-c2ccc(C(C)(C)C)cc2)c3-c2ccc(C(C)(C)C)cc2)c(C)c1
absorption maximum (in C1CCCCC1): 602 nm
absorption maximum (in C1CCOC1): 602 nm
absorption maximum (in CC#N): 592 nm
absorption maximum (in Cc1ccccc1): 606 nm
absorption maximum (in ClCCl): 599 nm
